Our source for the Plate count and reduction of count values is US20080299098A1, “Broad-Spectrum Antibacterial and Antifungal Activity of Lactobacillus Johnsonii D115” (priority 2007, published 2008).

Read-outs that look alike come from different tables or passages of the source.

The test system of one experiment is Brachyspira pilosicoli. The settings on record: for Plate count: hydrogen peroxide 3300 μM.
The subject of experiment [1] is Brachyspira hyodysenteriae. The settings on record: for Plate count: hydrogen peroxide 3100 μM.
Setting [2] is: hydrogen peroxide at approximately 3,000 μM, 2 h.

Regarding `OO` [hydrogen peroxide], the Plate count in the experiment with Brachyspira pilosicoli (0 hr) is listed as 6.00 × 10^6 CFU per ml; in the experiment on Brachyspira pilosicoli (2 hr), 3.00 × 10^1 CFU per ml; in experiment [1] (0 hr), 5.0 × 10^5 CFU per ml; in experiment [1] (2 hr), 9 CFU per ml. For the same molecule, the values for the reduction of count (in the experiment on Brachyspira pilosicoli (setting [2]); in experiment [1] (setting [2])) were 5 logs and 4 logs, respectively.
